Measurements published in PMC6072853 (Frontiers in Pharmacology, 2018).
Read-outs that look alike come from different tables or passages of the source.

How the values were obtained:
Assay type in all cases: cell-based, human
A2780 = experiment: MTT antiproliferative assay, A2780; conditions: for Growth inhibition (%) ± SEM / inhibition at 10 µM / inhibition at 30 µM: 72 h; for inhibition at 10 µM / inhibition at 30 µM: Homo sapiens, read-out: Growth inhibition (%) ± SEM
Description: (§1) Gynecological cancer cell lines, including ovarian (A2780), cervical (HeLa), and breast cancer cell lines (MCF7, T47D, MDA-MB-231, and MDA-MB-361) were purchased from the European Collection of Authenticated Cell Cultures (ECACC, Salisbury, United Kingdom). Additional cervical cell lines (SiHa and C33A) and a non-cancerous immortalized, mammary gland epithelial cell line (hTERT-HME1) were purchased from LGC Standards GmbH (Wesel, Germany). Non-cancerous fibroblast cells (MRC-5) were also obtained from the ECACC. All cells were cultured in minimal essential medium supplemented with 10% fetal bovine serum, 1% non-essential amino acids, and 1% antibiotic-antimycotic mixture, in humidified air containing 5% CO2 at 37°C. Immortalized hTERT-HME1 cells were maintained in serum-free mammary epithelial cell growth medium (MEGM) supplemented with insulin, human epidermal growth factor (hEGF), hydrocortisone, bovine pituitary extract, and an antibiotic-antimycotic mixture. All the medium and supplements were purchased from Lonza Group Ltd. (Basel, Switzerland).
(§2) The antiproliferative properties of the compounds were assessed by an MTT assay ([Mosmann, 1983]). Cells were seeded onto 96-well microplates at a density of 10,000 cells/well (MDA-MB-361 and C33A) or 5,000 cells/well (all other cell lines). After an overnight incubation, fresh medium containing the test compounds (at a concentration of 10 or 30 μM) was added. After incubation for 72 h at 37°C in humidified air, [3-(4,5-dimethylthiazol-2-yl)-2,5-diphenyltetrazolium bromide] (MTT) solution (5 mg/mL) was added. Purple formazan crystals were formed by the living cells during a 4 h contact period, which were assayed by spectrophotometry after having been dissolved in 100 μL DMSO. Untreated cells served as control, and cisplatin (CIS) (Ebewe Pharma GmbH, Unterach, Austria) was used as a reference compound. […] Two independent measurements were performed with five parallel wells. To present preliminary data concerning tumor selectivity of the potent compounds, the procedure was repeated on MRC-5 fibroblast and hTERT-HME1 immortalized mammary gland epithelial cells under the same experimental conditions.

T47D = experiment: MTT antiproliferative assay, T47D; conditions: 72 h; for inhibition at 10 µM / inhibition at 30 µM: Homo sapiens, read-out: Growth inhibition (%) ± SEM
Description: as §1, §2

MDA-MB-361 = experiment: MTT antiproliferative assay, MDA-MB-361; conditions: for Growth inhibition (%) ± SEM / inhibition at 10 µM / inhibition at 30 µM: 72 h; for inhibition at 10 µM / inhibition at 30 µM: Homo sapiens, read-out: Growth inhibition (%) ± SEM
Description: as §1, §2

HeLa = experiment: MTT antiproliferative assay, HeLa; conditions: 72 h; for IC50: read-out: calculated IC50 value; for inhibition at 10 µM / inhibition at 30 µM: read-out: Growth inhibition (%) ± SEM
Description: as §1, §2

SiHa = experiment: MTT antiproliferative assay, SiHa; conditions: 72 h; for inhibition at 10 µM / inhibition at 30 µM: Homo sapiens, read-out: Growth inhibition (%) ± SEM
Description: as §1, §2

MCF-7 = experiment: MTT antiproliferative assay, MCF-7; conditions: 72 h; for inhibition at 10 µM / inhibition at 30 µM: Homo sapiens, MCF7, read-out: Growth inhibition (%) ± SEM
Description: as §1, §2

C33A = experiment: MTT antiproliferative assay, C33A; conditions: 72 h; for inhibition at 10 µM / inhibition at 30 µM: Homo sapiens, C-33-A, read-out: Growth inhibition (%) ± SEM
Description: as §1, §2

hTERT-HME1 = experiment: MTT assay, immortalized mammary gland epithelial cells hTERT-HME1; conditions: for Growth inhibition (%) ± SEM: 72 h
Description: as §1, §2

MRC-5 = experiment: MTT assay, non-cancerous fibroblasts MRC-5
Description: as §1, §2

MDA-MB-231 = experiment: MTT antiproliferative assay, MDA-MB-231; conditions: for inhibition at 10 µM / inhibition at 30 µM: Homo sapiens, read-out: Growth inhibition (%) ± SEM; for inhibition at 10 µM: MDA-MB-231, 10 μM
Description: as §1, §2

[1] = read-out: calculated IC50 value

With N.N.[Cl][Pt][Cl] [CIS, cisplatin, reference compound] the “Growth inhibition (%) ± SEM” value (A2780; A2780, 10 μM) was 83.6 ± 1.2%, the “Growth inhibition (%) ± SEM” value (A2780; A2780, 30 μM) was 95.0 ± 0.3% and the IC50 (A2780; A2780, 72 h, read-out: calculated IC50 value) was 1.3 µM. For the same compound, the “Growth inhibition (%) ± SEM” value (T47D; 10 μM) was 51.0 ± 2.0%, the “Growth inhibition (%) ± SEM” value (T47D; 30 μM) was 55.0 ± 1.5% and the IC50 (T47D; [1]) was 9.78 µM. For the same compound, the “Growth inhibition (%) ± SEM” value (MDA-MB-361; MDA-MB-361, 10 μM) was 67.5 ± 1.0%, the “Growth inhibition (%) ± SEM” value (MDA-MB-361; MDA-MB-361, 30 μM) was 87.8 ± 1.1% and the IC50 (MDA-MB-361; MDA-MB-361, 72 h, read-out: calculated IC50 value) was 3.74 µM. The “Growth inhibition (%) ± SEM” value (HeLa; 10 μM) was 42.6 ± 2.3%, the “Growth inhibition (%) ± SEM” value (HeLa; 30 μM) was 99.9 ± 0.3% and the IC50 (HeLa) was 12.4 µM. For the same compound, the “Growth inhibition (%) ± SEM” value (SiHa; 10 μM) was 88.6 ± 0.5%, the “Growth inhibition (%) ± SEM” value (SiHa; 30 μM) was 90.2 ± 1.8% and the IC50 (SiHa; [1]) was 7.84 µM. For the same compound, the “Growth inhibition (%) ± SEM” value (MCF-7; MCF-7, 10 μM) was 66.9 ± 1.8%, the “Growth inhibition (%) ± SEM” value (MCF-7; MCF-7, 30 μM) was 96.8 ± 0.4% and the “Growth inhibition (%) ± SEM” value (C33A; 10 μM) was 83.8 ± 0.8%. For the same compound, the “Growth inhibition (%) ± SEM” value (C33A; 30 μM) was 93.9 ± 0.6%, the IC50 (C33A; [1]) was 1.77 µM and the “Growth inhibition (%) ± SEM” value (hTERT-HME1; hTERT-HME1, 10 μM) was 97.7 ± 0.3%. For the same compound, the “Growth inhibition (%) ± SEM” value (hTERT-HME1; hTERT-HME1, 30 μM) was 99.1 ± 0.3%, the IC50 (hTERT-HME1; hTERT-HME1, 72 h, read-out: calculated IC50 value) was 2.45 µM and the “Growth inhibition (%) ± SEM” value (MRC-5; MRC-5, 10 μM, 72 h) was 60.3 ± 3.3%. For the same compound, the “Growth inhibition (%) ± SEM” value (MRC-5; MRC-5, 30 μM, 72 h) was 61.9 ± 1.0%, the IC50 (MRC-5; MRC-5, 72 h, read-out: calculated IC50 value) was 6.19 µM and the “Growth inhibition (%) ± SEM” value (MDA-MB-231; MDA-MB-231, 30 μM, 72 h) was 71.5 ± 1.2%. The IC50 (MDA-MB-231; MDA-MB-231, 72 h, read-out: calculated IC50 value) was 19.1 µM.
Compound C[C@]12CC[C@H]3[C@@H](CCC4=CC(=O)CC[C@@H]43)[C@@H]1CC[C@H]2O [Compound 2, 17α-19-nortestosterone] has an inhibition at 10 µM (A2780; A2780, 10 μM) of under 20%, an inhibition at 30 µM (A2780; A2780, 30 μM) of under 20% and an inhibition at 10 µM (T47D; 10 μM) of under 20%. It also gave an inhibition at 30 µM (T47D; 30 μM) of under 20%, an inhibition at 10 µM (MDA-MB-361; MDA-MB-361, 10 μM) of under 20% and an inhibition at 30 µM (MDA-MB-361; MDA-MB-361, 30 μM) of under 20%. For the same compound, the inhibition at 10 µM (HeLa; Homo sapiens, 10 μM) was 28.1 ± 4%, the inhibition at 30 µM (HeLa; Homo sapiens, 30 μM) was 37.9 ± 3.4% and the inhibition at 10 µM (SiHa; 10 μM) was under 20%. The inhibition at 30 µM (SiHa; 30 μM) was under 20%, the inhibition at 10 µM (MCF-7; MCF-7, 10 μM) was under 20% and the inhibition at 30 µM (MCF-7; MCF-7, 30 μM) was 27.7 ± 3.7%. It also gave an inhibition at 10 µM (C33A; 10 μM) of under 20%, an inhibition at 30 µM (C33A; 30 μM) of under 20% and an inhibition at 10 µM (MDA-MB-231; 72 h) of under 20%. It also gave an inhibition at 30 µM (MDA-MB-231; MDA-MB-231, 30 μM, 72 h) of under 20%.
Work on C[C@]12CC[C@H]3[C@@H](CCC4=CC(=O)CC[C@@H]43)[C@@H]1CC[C@H]2Br [Compound 4, 17α-bromo-19-nortestosterone] yielded an inhibition at 10 µM (A2780; A2780, 10 μM) of under 20%, an inhibition at 30 µM (A2780; A2780, 30 μM) of 54.4 ± 1.6% and an inhibition at 10 µM (T47D; 10 μM) of under 20%. It also gave an inhibition at 30 µM (T47D; 30 μM) of under 20%, an inhibition at 10 µM (MDA-MB-361; MDA-MB-361, 10 μM) of under 20% and an inhibition at 30 µM (MDA-MB-361; MDA-MB-361, 30 μM) of under 20%. It also gave an inhibition at 10 µM (HeLa; Homo sapiens, 10 μM) of 94.4 ± 0.7%, an inhibition at 30 µM (HeLa; Homo sapiens, 30 μM) of 94.1 ± 0.5% and an IC50 (HeLa; Homo sapiens) of 1.69 µM. The inhibition at 10 µM (SiHa; 10 μM) was under 20%, the inhibition at 30 µM (SiHa; 30 μM) was under 20% and the inhibition at 10 µM (MCF-7; MCF-7, 10 μM) was under 20%. It also gave an inhibition at 30 µM (MCF-7; MCF-7, 30 μM) of under 20%, an inhibition at 10 µM (C33A; 10 μM) of under 20% and an inhibition at 30 µM (C33A; 30 μM) of under 20%. For the same compound, the inhibition at 10 µM (MRC-5; Homo sapiens, MRC5, MRC-5, 10 μM, 72 h, read-out: Growth inhibition (%) ± SEM) was 11.9 ± 2.3%, the inhibition at 30 µM (MRC-5; Homo sapiens, MRC5, MRC-5, 30 μM, 72 h, read-out: Growth inhibition (%) ± SEM) was 20.4 ± 2.1% and the inhibition at 10 µM (MDA-MB-231; 72 h) was under 20%. For the same compound, the inhibition at 30 µM (MDA-MB-231; MDA-MB-231, 30 μM, 72 h) was under 20%.
